Laboratory results reported in PubChem BioAssay (NCI).
Where “and” joins values, the source holds several entries; their conditions need not be identical. Identical values can stand only once.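 The compound was tested at five concentrations on cells cultured in 96-well plates, with a 48-hour exposure period. GI50: concentration for 50% inhibition of growth. The concentration for full growth arrest is given as TGI.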

Key:
Assay in all cases: DTP human tumour cell line panel, 48 h
DU-145 prostate = tested on: DU-145 prostate
UACC-62 melanoma = tested on: UACC-62 melanoma
SK-MEL-2 melanoma = tested on: SK-MEL-2 melanoma
SK-MEL-5 melanoma = tested on: SK-MEL-5 melanoma
ACHN renal = tested on: ACHN renal
CCRF-CEM leukemia = tested on: CCRF-CEM leukemia
UACC-257 melanoma = tested on: UACC-257 melanoma
T-47D breast = tested on: T-47D breast

Row | Structure (SMILES) | TGI (DU-145 prostate) | TGI (UACC-62 melanoma) | TGI (SK-MEL-2 melanoma) | TGI (SK-MEL-5 melanoma) | TGI (ACHN renal) | TGI (CCRF-CEM leukemia) | TGI (UACC-257 melanoma) | TGI (T-47D breast) | GI50 (DU-145 prostate) | GI50 (UACC-62 melanoma) | GI50 (SK-MEL-2 melanoma) | GI50 (SK-MEL-5 melanoma) | GI50 (ACHN renal) | GI50 (CCRF-CEM leukemia) | GI50 (UACC-257 melanoma) | GI50 (T-47D breast)
1 | CC(C)OC(=O)NNc1c(Cl)cc(Cl)cc1Cl | > 100 µM | > 100 µM | > 100 µM | 60.5 µM | > 100 µM | > 100 µM | > 100 µM | > 100 µM |  |  |  |  |  |  |  | 
2 | O=C(Nc1ccc(Br)cc1)c1cc(Br)ccc1O | > 47 µM and 14.1 µM | 1.07 µM and 2.25 µM | 1.25 µM and 5 µM | 1.16 µM and 1.56 µM | > 64 µM |  | 3.58 µM and 8.43 µM | 5.02 µM and 7.42 µM | 0.539 µM and 2.03 µM | 0.235 µM and 0.371 µM | 0.278 µM and 1.74 µM | 0.304 µM and 0.416 µM | 0.61 µM and 1.47 µM | 0.862 µM and 0.752 µM | 0.455 µM and 2.73 µM | 0.337 µM and 0.604 µM
3 | Cc1ccc(S(=O)(=O)NC(=O)Nc2ncn[nH]2)cc1 | > 100 µM | > 100 µM | > 100 µM | > 100 µM | > 100 µM | > 100 µM | > 100 µM | > 100 µM |  |  |  |  |  |  |  | 
4 | O=c1oc2cc(O)ccc2cc1-c1nc2ccccc2o1 | > 100 µM | > 100 µM | > 100 µM | 40.8 µM | > 100 µM | > 100 µM | > 100 µM | 31.2 µM |  |  |  |  |  |  |  | 
5 | O=C(Nc1cccc2[nH]c(C(F)(F)F)nc12)c1ccc(Br)cc1F | 20.5 µM | 13.5 µM | 2.12 µM | 3.94 µM | 11.1 µM | 20.1 µM | 6.67 µM | 7.49 µM | 4.87 µM | 3.26 µM | 0.32 µM | 1.85 µM | 3.08 µM | 3.23 µM | 2.35 µM | 2.26 µM
6 | C(#Cc1ccccc1C#Cc1cnccn1)c1cnccn1 | > 100 µM | 51.4 µM | > 61.1 µM | 35.9 µM | > 68.9 µM | > 100 µM | > 58.6 µM | > 100 µM | 21.8 µM | 17.5 µM | > 38.9 µM | 16.9 µM | 19.2 µM | 32.3 µM | 22.7 µM | 39.7 µM
7 | Cc1nc2ccccc2c(/C=C/c2ccc(F)cc2)c1C(=O)/C=C/c1ccccc1 | 6.21 µM | 4.04 µM | 15.8 µM | 5.12 µM | 4.65 µM | > 100 µM | 8.65 µM | 9.87 µM | 2.34 µM | 1.86 µM | 3.22 µM | 2.11 µM | 1.98 µM | 2.44 µM | 2.82 µM | 1.55 µM
8 | COc1cccc(/C=C2\COc3ccc(O)c(O)c3C2=O)c1OC | 10.4 µM | 4.53 µM | 6.34 µM | 4.3 µM | 12.2 µM | > 100 µM | 7.18 µM | 22.1 µM | 2.61 µM | 1.8 µM | 2.35 µM | 2.05 µM | 3.27 µM | 0.61 µM | 2.37 µM | 1.66 µM
9 | CN(COC(=O)C(C)(C)C)c1nc(N(C)COC(=O)C(C)(C)C)nc(N(C)COC(=O)C(C)(C)C)n1 | > 100 µM |  | > 100 µM | > 100 µM | > 100 µM | > 100 µM | > 100 µM | > 100 µM |  |  |  |  |  |  |  | 
10 | O=C(NCCc1nccs1)c1cnc2c(S)cccc2c1 | 13.7 µM | 24.1 µM | 26.5 µM | 16 µM | 14.1 µM | > 100 µM | 15.3 µM | 62.6 µM | 3.27 µM | 2.68 µM | 3.57 µM | 3.2 µM | 3.36 µM | 1.77 µM | 3.77 µM | 2.37 µM
11 | COc1cccc(C2=C(c3cn(C)c4c(C)cccc34)C(=O)NC2=O)c1 | > 25 µM | > 25 µM | > 25 µM | > 25 µM | > 25 µM | > 25 µM | > 25 µM | > 25 µM | > 25 µM | > 22.1 µM | > 16.9 µM | 21.5 µM | 16.8 µM | > 25 µM | > 25 µM | > 20.2 µM
12 | CCc1n(Cc2ccc3ccccc3c2)cc[n+]1Cc1ccc2ccccc2c1 | 4.23 µM | 2 µM | 2.14 µM | 1.28 µM | 10 µM | 4.34 µM | 3.27 µM | 4.7 µM | 0.965 µM | 0.507 µM | 0.534 µM | 0.361 µM | 2.87 µM | 0.922 µM | 0.554 µM | 0.425 µM
13 | CCCCCCCCCCCCNCCCc1ccccc1 | 3.51 µM | 3.29 µM |  | 3.11 µM | 3.5 µM | 5.32 µM | 3.18 µM | 3.37 µM | 1.92 µM | 1.76 µM |  | 1.73 µM | 1.8 µM | 2.15 µM | 1.74 µM | 1.78 µM
14 | CC(=O)OC1C(C)OC(Oc2c(-c3ccc(O)cc3)oc3cc(O)cc(O)c3c2=O)C(O)C1OC(C)=O (stereo not given) | > 94.1 µM | > 60.5 µM | 49.3 µM | 39.9 µM | > 100 µM | > 100 µM | > 79.9 µM | 68.6 µM | 31.7 µM | 21.4 µM | 21.1 µM | 17.4 µM | 52.3 µM | 30.2 µM | 27.6 µM | 23.4 µM
15 | NC(=O)c1c(NC(=O)c2ccc(C(F)(F)F)cc2Cl)sc2c1CCC(=O)C2 | 25 µM | 1.21 µM | 5.37 µM | 2.08 µM | 1.04 µM | > 100 µM | 3.46 µM | 4.73 µM | 3.83 µM | 0.274 µM | 1.87 µM | 0.684 µM | 0.322 µM | 0.146 µM | 0.654 µM | 0.238 µM
16 | C=CCC(NCc1ccccc1)c1cn(C(=O)OCC)c2ccccc12 (stereo not given) | 60.7 µM | 50.6 µM | > 100 µM | 28 µM | 36.5 µM | 42.1 µM | 49.5 µM | > 100 µM | 20.8 µM | 22.6 µM | 33.1 µM | 13.9 µM | 18.5 µM | 19.4 µM | 23.8 µM | 33.3 µM
